Columns and labels:
Type in all cases: cell-based
vanilloid receptor (VR1) = vanilloid receptor (VR1) (Homo sapiens (Human), UniProt Q8NER1); assay: FLIPR Ca2+ influx assay on CHO-K1 cells transfected with the human VR1 gene, capsaicin stimulus (Pharmacological Method II)
Experimental: Furthermore, preference may be given to compounds of the invention of the general formulas I, Ia, Ib and Ic, which in the FLIPR assay using CHO—K1 cells, which have been transfected with the human VR1 gene in a concentration below 2000 nM, preferably below 1000 nM, more preferably below 300 nM, even more preferably below 100 nM, still more preferably below 75 nM, very preferably below 50 nM and most preferably below 10 nM, cause a 50 percent displacement of capsaicin present in a concentration of 100 nM. In the FLIPR assay, the Ca^2+ influx is quantified with the aid of a Ca^2+-sensitive dye (type Fluo-4, Molecular Probes Europe BV, Leiden, Netherlands) in a fluorescent imaging plate reader (FLIPR, Molecular Devices, Sunnyvale, USA), as described below.
II. Functional Investigations on the Vanilloid Receptor (VR1)
The agonistic or antagonistic action of the substances to be examined on the vanilloid receptor (VR1) can alternatively be determined by the following assay. According to this assay the Ca^2+ influx through the canal is quantified with the aid of a Ca^2+-sensitive dye (type Fluo-4, Molecular Probes, Europe BV, Leiden, Netherlands) in a fluorescent imaging plate reader (FLIPR, Molecular Devices, Sunnyvale, USA).
Chinese hamster ovary cells (CHO—K1 cells, European Collection of Cell Cultures (ECACC) UK) are stably transfected with the VR1 gene. For carrying out functional investigations, these cells are plated on poly-D-lysine-coated, black 96-well plates with a clear bottom (BD Biosciences, Heidelberg, Germany) in a density of 25,000 cells/well. The cells are incubated overnight at 37° C. and 5% CO2 in a culture medium (Nutrient Mixture ‘am’s F12, 10% by volume of FCS (fetal calf serum), 18 μg/mL of L-proline). On the following day the cells are incubated with Fluo-4 (Fluo-4 2 μM, Pluronic F127 0.01 by volume, Molecular Probes in HBSS (Hank's buffered saline solution), Gibco Invitrogen GmbH, Karlsruhe, Germany) for 30 minutes at 37° C. The plates are then washed 3 times with HBSS buffer and, after another incubation over a period of 15 minutes at RT, are used in the FLIPR for Ca^2+ measurement. The Ca^2+-dependent fluorescence is measured prior to and following the addition of the substances being examined (wavelength λex=488 nm, λem=540 nm). Quantification is carried out by measuring the highest fluorescence intensity (PC, fluorescence counts) over time.
The FLIPR protocol consists of two substance additions. First of all, the substances to be tested (10 μM) are pipeted onto the cells and the Ca^2+ influx is compared with the control (capsaicin 10 μM) (percentage activation based on the Ca^2+ signal following addition of 10 μM of capsaicin). Following incubation over a period of 5 minutes 100 nM of capsaicin are applied and the influx of Ca^2+ is likewise determined.
Desensitizing agonists and antagonists lead to a suppression of the Ca^2+ influx. The percentage inhibition compared with the maximum inhibition achieved with 10 μM of capsaicin is calculated.
Based on the percentage displacement effected by different concentrations of the compounds of the general formula Ito be tested, IC50 inhibition concentrations that cause 50 percent displacement of capsaicin are calculated. Conversion using the Cheng Prusoff equation gave Ki values for the test substances (Cheng, Prusoff; Bioch. Pharmacol. 22, 3099-3108, 1973).
The affinity of the compounds of the invention for the vanilloid receptor 1 (VR1/TRPV1-Receptor) was detected as described above (Pharmacological Methods I and II respectively).

VR1/TRPV1 receptor = VR1/TRPV1 receptor (Homo sapiens (Human), UniProt Q8NER1); assay: Inhibition of human VR1/TRPV1 following pH-stimulus; details: for inhibition at 5 µM / inhibition at 10 µM / inhibition at 1 µM: read-out: inhibition (in percent) following pH-stimulus (Human); for IC50 (Human) following pH-stimulus / IC50: ne = no effect, no reaction observed
[1] = target: vanilloid receptor 1 (VR1/TRPV1) (Rattus norvegicus (Rat), UniProt O35433); assay: FLIPR Ca2+ influx assay on rat dorsal root ganglia cells, capsaicin stimulus (Pharmacological Method I)
Text: I. Functional Investigation on the Vanilloid Receptor 1 (VR1/TRPV1 Receptor)
The agonistic or antagonistic action of the substances to be investigated on the vanilloid receptor 1 (VR1/TRPV1) of the species rat can be determined using the following assay. According to this assay, the Ca^2+ influx through the receptor channel is quantified with the aid of a Ca^2+-sensitive dye (Type Fluo-4, Molecular Probes Europe BV, Leiden Netherlands) in a fluorescent imaging plate reader (FLIPR, Molecular Devices, Sunnyvale, USA).
Complete medium: 50 mL of HAMS F12 Nutrient Mixture (Gibco Invitrogen GmbH, Karlsruhe, Germany) with
10% by volume of FCS (fetal calf serum, Gibco Invitrogen GmbH, Karlsruhe, Germany, heat-inactivated);
2 mM of L-glutamine (Sigma, Munich, Germany);
1% by weight of AA solution (antibiotics/antimycotics solution, PAA, Pasching, Austria)
and 25 ng/mL of Medium NGF (2.5 S, Gibco Invitrogen GmbH, Karlsruhe, Germany) Cell culture plate: Poly-D-lysine-coated, black 96-well plates with a clear bottom (96-well black/clear plate, BD Biosciences, Heidelberg, Germany) are additionally coated with laminin (Gibco Invitrogen GmbH, Karlsruhe, Germany) by diluting laminin to a concentration of 100 μg/mL with PBS (Ca—Mg-free PBS, Gibco Invitrogen GmbH, Karlsruhe, Germany). Aliquots having a concentration of 100 μg/mL of laminin are taken and stored at −20° C. The aliquots are diluted with PBS in the ratio 1:10 to 10 μg/mL of laminin and in each case 50 μL of the solution is pipeted into a well of the cell culture plate. The cell culture plates are incubated at 37° C. for at least two hours, the supernatant solution is aspirated and the wells are in each case washed twice with PBS. The coated cell culture plates are stored with supernatant PBS and this is removed only directly before the addition of the cells.
Preparation of the Cells:
The vertebral column is removed from decapitated rats and this is laid directly in a cold, i.e. ice bath-surrounded, HBSS buffer (Hank's buffered saline solution, Gibco Invitrogen GmbH, Karlsruhe, Germany) and 1% by volume of an AA solution (antibiotics/antimycotics solution, PAA, Pasching, Austria) is added. The vertebral column is cut in two, longitudinally, and the vertebral canal is removed together with fascias. Subsequently, the dorsal root ganglia (DRGs) are removed and in turn stored in cold HBSS buffer to which 1% by volume of an AA solution has been added. The DRGs completely freed from blood residues and spinal nerves are in each case transferred to 500 μL of cold collagenase Type 2 (PAA, Pasching, Austria) and incubated at 37° C. for 35 minutes. After the addition of 2.5% by volume of trypsin (PAA, Pasching, Austria), the preparation is incubated at 37° C. for a further 10 minutes. On completion of incubation, the enzyme solution is carefully pipeted off and 500 μL of complete medium are added to the DRGs in each case. The DRGs are in each case repeatedly suspended, drawn through No. 1, No. 12, and No. 16 needles by means of a syringe and transferred to 50 mL Falcon tubes and these are filled to 15 mL with complete medium. The contents of each Falcon tube are in each case filtered through a 70 μm Falcon filter insert and centrifuged at 1200 rpm and RT for 10 minutes. The resulting pellet is in each case taken up in 250 μL of complete medium and the cell count is determined.
The number of cells in the suspension is adjusted to 3×10^5 per mL and in each case 150 μL of this suspension are added to a well of the cell culture plates coated as described above. The plates are allowed to stand at 37° C., 5% by volume of CO2 and 95% relative humidity for two to three days in an incubator. […]

Sequence of vanilloid receptor (VR1) (Q8NER1 whole entry): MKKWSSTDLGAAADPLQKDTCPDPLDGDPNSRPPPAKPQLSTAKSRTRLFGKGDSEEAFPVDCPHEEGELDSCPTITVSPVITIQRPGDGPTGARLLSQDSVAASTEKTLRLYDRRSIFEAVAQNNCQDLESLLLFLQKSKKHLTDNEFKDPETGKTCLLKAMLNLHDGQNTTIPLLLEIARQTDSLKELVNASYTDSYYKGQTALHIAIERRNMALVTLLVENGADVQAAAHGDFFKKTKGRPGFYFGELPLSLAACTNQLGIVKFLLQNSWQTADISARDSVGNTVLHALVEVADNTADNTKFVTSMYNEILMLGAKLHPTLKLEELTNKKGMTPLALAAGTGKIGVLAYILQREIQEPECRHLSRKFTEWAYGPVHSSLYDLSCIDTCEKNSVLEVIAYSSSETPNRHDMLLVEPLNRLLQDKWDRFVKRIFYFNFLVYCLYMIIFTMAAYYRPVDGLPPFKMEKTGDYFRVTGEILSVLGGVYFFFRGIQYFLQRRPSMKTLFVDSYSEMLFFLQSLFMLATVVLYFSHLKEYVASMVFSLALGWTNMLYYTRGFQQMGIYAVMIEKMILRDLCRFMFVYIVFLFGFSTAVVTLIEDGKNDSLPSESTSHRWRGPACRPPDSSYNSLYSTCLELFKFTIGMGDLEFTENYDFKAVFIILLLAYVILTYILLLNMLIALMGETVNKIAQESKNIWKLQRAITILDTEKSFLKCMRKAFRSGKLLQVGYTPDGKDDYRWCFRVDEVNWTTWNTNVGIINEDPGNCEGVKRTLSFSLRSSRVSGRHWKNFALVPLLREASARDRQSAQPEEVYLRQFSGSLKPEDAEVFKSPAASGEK
Sequence of VR1/TRPV1 receptor (Q8NER1 whole entry): as above
Sequence of vanilloid receptor 1 (VR1/TRPV1) (O35433 whole entry): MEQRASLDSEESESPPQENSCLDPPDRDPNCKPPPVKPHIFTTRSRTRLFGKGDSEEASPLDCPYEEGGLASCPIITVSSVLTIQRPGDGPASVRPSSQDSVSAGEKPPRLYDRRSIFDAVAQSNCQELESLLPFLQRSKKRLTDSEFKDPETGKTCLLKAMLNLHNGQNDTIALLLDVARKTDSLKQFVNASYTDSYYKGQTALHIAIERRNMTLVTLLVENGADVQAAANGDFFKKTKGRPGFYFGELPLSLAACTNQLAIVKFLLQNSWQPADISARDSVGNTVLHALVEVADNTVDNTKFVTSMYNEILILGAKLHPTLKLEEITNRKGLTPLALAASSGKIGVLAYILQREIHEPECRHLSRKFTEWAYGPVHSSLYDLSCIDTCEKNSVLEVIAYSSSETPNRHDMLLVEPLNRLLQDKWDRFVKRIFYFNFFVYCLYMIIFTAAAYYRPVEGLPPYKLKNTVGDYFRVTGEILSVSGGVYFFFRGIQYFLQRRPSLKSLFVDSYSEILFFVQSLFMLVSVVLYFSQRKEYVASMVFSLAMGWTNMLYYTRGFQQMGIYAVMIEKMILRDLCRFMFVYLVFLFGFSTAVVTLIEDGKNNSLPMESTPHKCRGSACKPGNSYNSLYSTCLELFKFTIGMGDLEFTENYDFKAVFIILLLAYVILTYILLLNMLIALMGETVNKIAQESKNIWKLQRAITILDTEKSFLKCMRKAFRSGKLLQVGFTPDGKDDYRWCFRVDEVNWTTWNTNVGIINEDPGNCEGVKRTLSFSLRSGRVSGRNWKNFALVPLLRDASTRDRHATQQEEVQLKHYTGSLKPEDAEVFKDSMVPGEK

With `CC1CCN(c2nc(C(F)(F)F)ccc2CNC(=O)Cc2cc(Br)c(O)c(Br)c2)CC1` [Example 23, 2-(3,5-Dibromo-4-hydroxyphenyl)-N-(4-methyl-6′-trifluoromethyl-3,4,5,6-tetra-hydro-2H-[1,2′]bipyridinyl-3′-ylmethyl)acetamide] the Ki (vanilloid receptor (VR1)) was 0.3 nM, the inhibition at 5 µM (VR1/TRPV1 receptor) was 8% and the inhibition at 10 µM (VR1/TRPV1 receptor) was 35%.
In the case of `CC1CCN(c2nc(C(F)(F)F)ccc2CNC(=O)Cc2cc(F)ccc2F)CC1` [Example 7, 2-(2,5-Difluorophenyl)-N-(4-methyl-6′-trifluoromethyl-3,4,5,6-tetrahydro-2H-[1,2′]bipyridinyl-3′-ylmethyl)acetamide], the Ki (vanilloid receptor (VR1)) is reported as 30 nM, the Ki [1] is reported as 63 nM and the “IC50 (Human) following pH-stimulus” value (VR1/TRPV1 receptor) is reported as “ne”.
For `C=CC(=O)Nc1c(F)cc(C(C)C(=O)NCc2ccc(C(F)(F)F)nc2N2CCC(C)CC2)cc1I` (stereo not drawn) [Example 34, N-(2-Fluoro-6-iodo-4-(1-((2-(4-methylpiperidin-1-yl)-6-(trifluoromethyl)pyridin-3-yl)methylamino)-1-oxopropan-2-yl)phenyl)acrylamide], the Ki (vanilloid receptor (VR1)) was 4.8 nM and the “IC50 (Human) following pH-stimulus” value (VR1/TRPV1 receptor) was “ne”.
In the case of `CC1CCN(c2nc(C(F)(F)F)ccc2CNC(=O)C(C)c2cc(F)c(N)c(F)c2)CC1` (stereo not drawn) [Example 26, 2-(4-Amino-3,5-difluorophenyl)-N-((2-(4-methylpiperidin-1-yl)-6-(trifluoromethyl)pyridin-3-yl)methyl)propanamide], the Ki (vanilloid receptor (VR1)) is reported as 9.6 nM, the Ki [1] is reported as 3.4 nM and the “IC50 (Human) following pH-stimulus” value (VR1/TRPV1 receptor) is reported as “ne”.
In the case of `CC1CCN(c2nc(C(F)(F)F)ccc2CNC(=O)C(C)c2cc(F)cc(F)c2)CC1` (stereo not drawn) [Example 10, 2-(3,5-Difluorophenyl)-N-(4-methyl-6′-trifluoromethyl-3,4,5,6-tetrahydro-2H-[1,2′]bipyridinyl-3′-ylmethyl)propionamide], the Ki (vanilloid receptor (VR1)) is reported as 24.7 nM and the “IC50 (Human) following pH-stimulus” value (VR1/TRPV1 receptor) is reported as “ne”.
With `COc1cc(CC(=O)NCc2ccc(C(F)(F)F)nc2N2CCC(C)CC2)cc(Br)c1N` [Example 3, 2-(4-Amino-3-bromo-5-methoxyphenyl)-N-(4-methyl-6′-trifluoromethyl-3,4,5,6-tetrahydro-2H-[1,2′]bipyridinyl-3′-ylmethyl)acetamide] the Ki (vanilloid receptor (VR1)) was 4.4 nM, the Ki [1] was 16.7 nM and the IC50 (VR1/TRPV1 receptor) was 253 nM.
`CC1CCN(c2nc(C(F)(F)F)ccc2CNC(=O)C(C)c2cc(O)c([N+](=O)[O-])c(F)c2)CC1` (stereo not drawn) [Example 27, 2-(3-Fluoro-5-hydroxy-4-nitrophenyl)-N-((2-(4-methylpiperidin-1-yl)-6-(trifluoromethyl)pyridin-3-yl)methyl)propanamide] gave a Ki (vanilloid receptor (VR1)) of 7.9 nM, a Ki [1] of 7.7 nM and an inhibition at 1 µM (VR1/TRPV1 receptor) of 7%. It also gave an inhibition at 5 µM (VR1/TRPV1 receptor) of 35% and an inhibition at 10 µM (VR1/TRPV1 receptor) of 49%.
In the case of `CC(=O)Nc1ccc(C(C)C(=O)NCc2ccc(C(F)(F)F)nc2N2CCC(C)CC2)cc1F` (stereo not drawn) [Example 18, 2-(4-Acetamido-3-fluorophenyl)-N-((2-(4-methylpiperidin-1-yl)-6-(trifluoromethyl)pyridin-3-yl)methyl)propanamide], the Ki (vanilloid receptor (VR1)) is reported as 25 nM and the “IC50 (Human) following pH-stimulus” value (VR1/TRPV1 receptor) is reported as “ne”.
For `CC1CCN(c2nc(C(F)(F)F)ccc2CNC(=O)Cc2c(F)cccc2F)CC1` [Example 6, 2-(2,6-Difluorophenyl)-N-(4-methyl-6′-trifluoromethyl-3,4,5,6-tetrahydro-2H-[1,2′]bipyridinyl-3′-ylmethyl)acetamide], the Ki (vanilloid receptor (VR1)) was 38 nM, the Ki [1] was 118 nM and the “IC50 (Human) following pH-stimulus” value (VR1/TRPV1 receptor) was “ne”.
For `CC1CCN(c2nc(C(F)(F)F)ccc2CNC(=O)C(C)c2cc(Br)c(O)c(Br)c2)CC1` (stereo not drawn) [Example 19, 2-(3,5-Dibromo-4-hydroxyphenyl)-N-(4-methyl-6′-trifluoromethyl-3,4,5,6-tetra-hydro-2H-[1,2′]bipyridinyl-3′-ylmethyl)propionamide], the Ki (vanilloid receptor (VR1)) was 1.1 nM, the inhibition at 1 µM (VR1/TRPV1 receptor) was 0% and the inhibition at 5 µM (VR1/TRPV1 receptor) was 20%. It also gave an inhibition at 10 µM (VR1/TRPV1 receptor) of 31%.
Work on `CC1CCN(c2nc(C(F)(F)F)ccc2CNC(=O)C(C)c2cc(Br)c(N)c(Br)c2)CC1` (stereo not drawn) [Example 20, 2-(4-Amino-3,5-dibromophenyl)-N-(4-methyl-6′-trifluoromethyl-3,4,5,6-tetra-hydro-2H-[1,2′]bipyridinyl-3′-ylmethyl)propionamide] yielded a Ki (vanilloid receptor (VR1)) of 0.9 nM, an inhibition at 1 µM (VR1/TRPV1 receptor) of 0% and an inhibition at 5 µM (VR1/TRPV1 receptor) of 10%. The inhibition at 10 µM (VR1/TRPV1 receptor) was 27%.
In the case of `CC1CCN(c2nc(C(F)(F)F)ccc2CNC(=O)Cc2cc(Br)c(N)c(Br)c2)CC1` [Example 22, 2-(4-Amino-3,5-dibromophenyl)-N-(4-methyl-6′-trifluoromethyl-3,4,5,6-tetra-hydro-2H-[1,2′]bipyridinyl-3′-ylmethyl)acetamide], the Ki (vanilloid receptor (VR1)) is reported as 0.7 nM and the IC50 (VR1/TRPV1 receptor) is reported as 158 nM.
For `COc1cc(CC(=O)NCc2ccc(C(F)(F)F)nc2N2CCC(C)CC2)cc(Br)c1O` [Example 21, 2-(3-Bromo-4-hydroxy-5-methoxyphenyl)-N-(4-methyl-6′-trifluoromethyl-3,4,5,6-tetrahydro-2H-[1,2′]bipyridinyl-3′-ylmethyl)acetamide], the Ki (vanilloid receptor (VR1)) was 0.1 nM, the inhibition at 5 µM (VR1/TRPV1 receptor) was 4% and the inhibition at 10 µM (VR1/TRPV1 receptor) was 38%.

From US8791268B2, “Vanilloid receptor ligands, pharmaceutical compositions containing them, process for making them, and use thereof for treating pain and other conditions” (Gruenenthal GmbH, priority 2007, dated 2014)
